From publication PMC8243516, “Inhibition of lysosomal phospholipase A2 predicts drug-induced phospholipidosis” (Journal of Lipid Research, 2021)
Like-named read-outs stand apart in the source and are kept apart here.

Tests used:
[1] = tested on: MDCK cells; experiment: Screening phospholipidosis assay (LipidTOX Red / NucBlue Live fluorescence ratio); conditions: for Ratio (15 μM): LipidTOX Red to NucBlue Live fluorescence ratio, 24 h
[2] = cited from earlier work
[3] = target: T1, LPLA2 (Mus musculus, UniProt Q8VEB4); experiment: LPLA2 thermal stability measurement (SYPRO Orange Tm); type: binding
T1 construct: purchased Proteos Inc. (Kalamazoo, MI)
T1 sequence (Q8VEB4 34-412): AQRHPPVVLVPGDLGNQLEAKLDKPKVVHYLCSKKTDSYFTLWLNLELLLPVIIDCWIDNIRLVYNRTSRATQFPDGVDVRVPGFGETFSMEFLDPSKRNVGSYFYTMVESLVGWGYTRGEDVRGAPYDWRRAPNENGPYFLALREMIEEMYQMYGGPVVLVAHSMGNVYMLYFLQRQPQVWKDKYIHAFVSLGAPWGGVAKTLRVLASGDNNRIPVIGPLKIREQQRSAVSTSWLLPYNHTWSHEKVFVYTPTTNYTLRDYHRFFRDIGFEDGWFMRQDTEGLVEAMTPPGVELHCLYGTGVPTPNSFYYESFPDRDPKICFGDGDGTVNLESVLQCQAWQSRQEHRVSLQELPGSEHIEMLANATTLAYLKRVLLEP

[4] = target: T2, recombinant mouse LPLA2 (PLA2G15) (Mus musculus, UniProt Q8VEB4); experiment: Transacylase activity of LPLA2 (1-O-acyl-N-acetylsphingosine synthase, cell-free liposome assay); type: biochemical
T2 construct: purchased Proteos Inc. (Kalamazoo, MI)
T2 sequence (Q8VEB4 34-412): T1 sequence (Q8VEB4 34-412)

[5] = tested on: phospholipidosis; conditions: phospholipidosis reported in vitro; Refs of Table 1; cited from earlier work
[6] = ref Pubchem and chEMBL database
[7] = LPLA2 dependent 1-O-acyl N-acetylsphingosine synthase activity, read-out: LPLA2 IC50
[8] = ref Pubchem and chEMBL databases
[9] = 1-O-acyl N-acetylsphingosine synthase activity, pH 4.5, DOPC/sulfatide liposomes, read-out: LPLA2 IC50

SMILES | (ΔTm)c-(ΔTm)d, difference in melting temperature of LPLA2 alone or in the presence of drug ([3]; N=3 ± SD) | IC50 [4, 7] | IC50 [4, 9] | Ratio (15 μM) [1] | pKa (basic) [2, 6] | (ΔTm)c-(ΔTm)d, difference in melting temperature of LPLA2 alone or in the presence of drug [3] | pKa (basic) [2, 8] | IC50 ([4]; LPLA2 IC50, 1-O-acyl N-acetylsphingosine synthase activity, pH 4.5, DOPC/sulfatide liposomes) | In Vitro PLD [5] | Signal in the LipidTOX assay (in words) [1]
Oc1ncnc2[nH]ncc12 [Allopurinol] | 0.67 ± 0.2 °C |  |  | 0.37 | 2.57 |  |  |  |  | 
Clc1cccc(Cl)c1N=C1NCCN1 [Clonidine] | -0.62 ± 0.0 °C |  |  | 0.25 | 8.16 |  |  |  |  | 
CCN1CCCC1CNC(=O)c1cc(S(=O)(=O)CC)c(N)cc1OC (centres unmarked) [Amisulpride] | 0 °C | 1920 µM |  | 0.08 | 7.05 |  |  |  |  | 
Cl.NCCc1ccc(O)c(O)c1 [3-Hydroxytyramine hydrochloride] |  |  |  | 0.91 |  | 0.75 ± 0.0 °C |  |  |  | 
CN(Cc1ccc(C(C)(C)C)cc1)Cc1cccc2ccccc12 [Butenafine] | -2.22 ± 0.3 °C | 41.2 µM |  | 0.31 | 9.23 |  |  |  |  | 
NC(=O)N1c2ccccc2C=Cc2ccccc21 [Carbamazepine] | -1.26 ± 0.1 °C | 106 µM |  | 0.18 | -3.8 |  |  |  |  | 
CN1CCN(CCCN2c3ccccc3Sc3ccc(C(F)(F)F)cc32)CC1 [Trifluoperazine] |  | 6.87 µM |  | 0.81 | 8.39 | 0.49 ± 0.3 °C |  |  |  | 
CCc1oc2ccccc2c1C(=O)c1cc(Br)c(O)c(Br)c1 [Benzbromarone, 2,6-dibromo-4-(2-ethyl-1-benzofuran-3-carbonyl)phenol] |  |  |  | 0.5 |  | -1.40 ± 0.3 °C | -3.8 | 3.8 µM | Yes | 
Cn1c(=O)[nH]c2ncn(C)c2c1=O [1,7-Dimethylxanthine] | 0 °C |  |  | 0.55 | 13.5 |  |  |  |  | 
NCCc1cc(O)c(O)cc1O [6-Hydroxydopamine] | -0.14 ± 0.1 °C |  |  | 0.93 |  |  |  |  |  | 
CCN(CCCc1ccccc1)CCCc1ccccc1 [Alverine, ethyl bis (3-phenylpropyl)amine] | 0.14 ± 0.1 °C |  | 40 µM |  |  |  | 10.44 |  | Yes | 
Clc1ccc(C(OCCN2CCCCC2)c2ccccc2)cc1 (centres unmarked) [Cloperastin, 1-{2-[(4-chlorophenyl) (phenyl)methoxy]ethyl} piperidine] | 0 °C |  | 40.9 µM |  |  |  | 8.82 |  | Yes | 
CN(Cc1cc(Br)cc(Br)c1N)C1CCCCC1.Cl [Bromhexine, 2-amino-3,5-dibromo-N-cyclohexyl-N-methylbenzylamine hydrochloride] | 1.26 ± 0.2 °C |  | 30.8 µM |  |  |  | 9.32 |  | Yes | 
O=C(CCCN1CCN(c2ccccn2)CC1)c1ccc(F)cc1 [Azaperone] | 0.93 ± 0.1 °C |  |  | 0.43 | 7.16 |  |  |  |  | 
Cc1cc(C(C)(C)C)cc(C)c1CC1=NCCN1 [Xylometazoline] | 0.66 ± 0.0 °C | 44.3 µM |  | 0.16 | 10.29 |  |  |  |  | 
CCOC(=O)COc1ccc2c(C)c(CCN(CC)CC)c(=O)oc2c1Cl [Cloricromen] | 0.24 ± 0.1 °C | 285 µM |  | 0.1 | 9.1 |  |  |  |  | 

Now from value to compound, other results behind:

(ΔTm)c-(ΔTm)d, difference in melting temperature of LPLA2 alone or in the presence of drug ([3]; N=3 ± SD) | IC50 [4, 7] | IC50 [4, 9] | SMILES | Ratio (15 μM) [1] | pKa (basic) [2, 6] | (ΔTm)c-(ΔTm)d, difference in melting temperature of LPLA2 alone or in the presence of drug [3] | pKa (basic) [2, 8] | IC50 ([4]; LPLA2 IC50, 1-O-acyl N-acetylsphingosine synthase activity, pH 4.5, DOPC/sulfatide liposomes) | In Vitro PLD [5] | Signal in the LipidTOX assay (in words) [1]
0.11 ± 0.1 °C | 59.8 µM |  | COc1cc(C(=O)OCCCN2CCCN(CCCOC(=O)c3cc(OC)c(OC)c(OC)c3)CC2)cc(OC)c1OC [Dilazep] | 1.17 | 9.54 |  |  |  |  | 
0.13 ± 0.1 °C | 60 µM |  | O=C1NC(=O)C(c2ccccc2)(c2ccccc2)N1 [Phenytoin] | 0.38 |  |  |  |  |  | 
0.94 ± 0.1 °C | 231 µM |  | CC(=O)O[C@H]1C[C@@]2(C)[C@@H](C[C@@H](O)[C@H]3[C@@]4(C)CC[C@@H](O)[C@@H](C)[C@@H]4CC[C@@]32C)/C1=C(\CCC=C(C)C)C(=O)O [Fuscidic acid] | 0.23 | -0.2 |  |  |  |  | 
-1.90 ± 02 °C | 13.4 µM |  | Cc1nc2sccn2c(=O)c1CCN1CCC(=C(c2ccc(F)cc2)c2ccc(F)cc2)CC1 [Ritanserin] | 0.19 | 8 |  |  |  |  | 
-0.23 ± 0.1 °C |  |  | Cc1ccc(Cl)c(Nc2ccccc2C(=O)O)c1Cl [Meclofenamic acid] | 0.52 | -3.6 |  |  |  |  | 
-1.67 ± 1.0 °C |  |  | O=C1NCC2(CCN(CCc3ccccc3)CC2)O1 [Fenspiride] | 0.07 | 9.37 |  |  |  |  | 
1.30 ± 0.1 °C | 12.9 µM |  | COCC(=O)O[C@]1(CCN(C)CCCc2nc3ccccc3[nH]2)CCc2cc(F)ccc2[C@@H]1C(C)C [Mibefradil] | 1.21 | 9.82 |  |  |  |  | 
1.20 ± 0.1 °C | 100 µM |  | NNc1nncc2ccccc12 [Hydralazine] | 0.6 | 6.4 |  |  |  |  | 
-1.05 ± 4.0 °C | 61.8 µM |  | C[C@]12CC[C@@H]3c4ccc(O)cc4C[C@@H](CCCCCCCCC[S+]([O-])CCCC(F)(F)C(F)(F)F)[C@H]3[C@@H]1CC[C@@H]2O (some centres unmarked) [Fulvestrant] | 0.37 | -0.88 |  |  |  |  | 
 | 146 µM |  | CN1CCc2c(c3ccccc3n2Cc2ccccc2)C1 [Mebhydrolin] | 2.54 | 6.7 |  |  |  |  | 
0.15 ± 0.1 °C | 38 µM |  | COc1ccc2[nH]cc(CCNC(C)=O)c2c1 [Melatonin] | 0.26 | -1.6 |  |  |  |  | 
0.66 ± 0.2 °C | 160 µM |  | CC(C)Cn1cnc2c(N)nc3ccccc3c21 [Imiquimod] | 0.07 | 5.01 |  |  |  |  | 
1.1 ± 0.0 °C |  |  | CC(COc1ccccc1)NC(C)C(O)c1ccc(O)cc1 (centres unmarked) [Isoxsuprine] | 1.22 | 9 |  |  |  |  | 
-1.20 ± 0.1 °C | 14.9 µM |  | CC[C@H](NC(=O)c1c(C)c(-c2ccccc2)nc2ccccc12)c1ccccc1 [sb222200] | 0.34 | 9.57 |  |  |  |  | 
0.83 ± 0.1 °C | 250 µM |  | NC(=O)C1(N2CCCCC2)CCN(CCCC(=O)c2ccc(F)cc2)CC1 [Pipamperone] | 0.37 | 8.96 |  |  |  |  | 
-1.45 ± 0.9 °C | 5.76 µM | 5.8 µM | O=C(O)[C@@H]1C[C@@H](C2CCCCC2)CN1C(=O)CP(=O)(O)CCCCc1ccccc1 [Fosinoprilat] | 0.19 | -4.7 |  |  |  |  | positive signal
0.18 ± 0.1 °C |  | 30.8 µM | COc1cc2nc(N3CCN(C(=O)c4ccco4)C4CCCCC43)nc(N)c2cc1OC (centres unmarked) [Cyclazosin, 1-(4-amino-6,7-dimethoxy-2-quinazolinyl)-4-(2-furanylcarbonyl) decahydroquinoxaline] |  |  |  | 9.89 |  | Yes | 
0.81 ± 0.3 °C |  | 52.5 µM | CC1=C(/C=C/C(C)=C/C=C/C(C)=C/CO)C(C)(C)CCC1 [Retinol, (2E,4E,6E,8E)-3,7-dimethyl-9-(2,6,6-trimethylcyclohex-1-en-1-yl)nona-2,4,6,8-tetraen-1-ol] |  |  |  | -2.2 |  | Yes | 
-1.85 ± 0.9 °C | 300 µM |  | COc1ccc(C2CNC(=O)C2)cc1OC1CCCC1 (centres unmarked) [Rolipram] | 0.19 | -1.9 |  |  |  |  | 
2.00 ± 0.2 °C | 6.82 µM |  | CCCCCCCCNC(C)C(O)c1ccc(SC(C)C)cc1 (centres unmarked) [Suloctidil] | 0.66 | 9.76 |  |  |  |  | 
